Test results: US6486161B1, “Use of rifamycin derivative for treating mastitis in a domestic animal” (priority 2000, dated 2002)
≈ marks a conversion by molar mass, not a printed value. Read-outs that look alike come from different tables or passages of the source.

Columns and labels:
[1] = system: Staphylococcus aureus 6097; assay: Dose titration in the mouse mastitis model (S. aureus-induced murine mastitis); type: in vivo; conditions: mice, read 6 days after infection; for ED (mg/kg/d) Mastitis: 50% of mice without mastitis; for ED (mg/kg/d) Culture: 50% of mice with no bacteria cultured from gland
[2] = system: Staphylococcus aureus 9203; assay: S. aureus intracellular killing assay in bovine PMN; type: cell-based; conditions: overnight incubation (18 to 21 hours)
Method: The therapeutic effect of the rifamycin derivative (1) was determined by S. aureus intracellular killing assay in bovine polymorphonuclear neutrophil (PMN).
The procedure for PMN isolation was as described in Carlton et al. (Proc. Soc. Exp. Biol. Med. 142: 853-858 (1973)).
Bovine blood collected by venipuncture in 50-ml syringes containing 1.5% EDTA (pH 6.8) was centrifuged at 1,000×g for 25 min. The plasma-buffer layer and the top few millileters were discarded. The packed erythrocyte fraction was pooled in 0.8% NaCl-phosphate buffer (pH 6.8) and 10 ml was placed in 20 ml of sterile water for 40 seconds to lyse the erythrocytes. Immediately thereafter, 10 ml of a 2.7% NaCl-phosphate buffer solution was added to restore isotonicity. The leukocytes, consisting of ≦84% PMNs, were washed twice and suspended in HBSS. PMNs were adjusted to a final concentration of 10^7 cells per ml.
The intracellular killing assay was carried out as described in Sanchez et al. (Antimicrobial Agents and Chemotherapy 29(4): 634-638 (1986)).
Bovine blood PMNs and bacteria (1:1) were suspended in HBSS containing 10% heterologous bovine serum. The mixture was incubated for 90 minutes at 37° C. in Erlenmeyer flasks with rotational mixing at 110 rpm. Lysostaphin (5 μg/ml) was added to the mixture for the final 15 minutes of incubation. The infected PMNs were washed 3 times by low-speed centrifugation and suspended in HBSS. Cells were pipetted (1 ml) into each well of a six-well cluster dish (Bellco Glass, Inc., Vineland, N.J.) at 5×10^6 PMNs per well. PMNs were allowed to attach and form a monolayer for 10 minutes at 37° C. The supernatant fluid with unattached cells was discarded, and 2 ml of fresh HBSS was added to each well. The rifamycin derivatives to be tested were then added to the wells (one six-well plate per drug). These derivatives were dissolved in dimethylsulfoxide, and then diluted in HBSS to final solvent concentrations of 0.01% (vol/vol) or less.
After overnight incubation (18 to 21 hours) at 37° C. with 1% CO2, lysostaphin (5 μg/ml) was added to each well for 15 min (at 37° C.) to kill extracellular bacteria. The monolayers were washed with HBSS, and the cells were lysed by addition of 1 ml of water to each well. The number of viable bacteria was then estimated by plate counts on brain heart infusion agar. […] The results are shown in Table 2, wherein R is the alkyl group in the rifamycin derivative (1).

[3] = system: S. aureus 30857, a rifampin-resistant isolate; assay: MIC, microbroth dilution, strain 30857; type: cell-based, Staphylococcus aureus; conditions: for MIC: strain 30857
Method: (§1) Four S. aureus strains were used: S. aureus 30857, a rifampin-resistant isolate: S. aureus 6097, a strain used in the mouse mastitis test and originally from a case of gangrenous bovine mastitis; S. aureus B83-1, derived from the Newbould 305 strain; and S. aureus ATCC 29213, the in vitro control stain recommended by NCCLS.
(§2) All S. aureus strains were maintained on 3 mm glass beads immersed in trypticase soy broth (BBL Microbiology Systems, Cockeysville, Md.) with 10% glycerol and held at −70° C. until revived. Prior to testing, the strains were subcultured on tryptose blood agar base (Difco, Detroit, Mich.) supplemented with 5% sheep blood for 24 hours at 35° C.
(§3) These compounds were dissolved in 95% ethanol, a solution which was then diluted to 10% ethanol with sterile distilled water. Further dilutions were conducted in water.
(§4) MIC (Minimum Inhibitory Concentration) determinations were performed using the microbroth dilution method. (National Committee for Clinical Laboratory Standards, 1990 Approved Standard […]. Methods for dilution antimicrobial susceptibility tests for bacteria that grow aerobically, 3rd edition. National Committee for Clinical Laboratory Standards, Villanova, Pa.) The results are shown in Table 3, wherein R is the alkyl group R in the rifamycin derivative (1).

[4] = system: S. aureus 6097; assay: MIC, microbroth dilution, strain 6097; type: cell-based, Staphylococcus aureus
Method: as §1, §2, §3, §4

[5] = system: S. aureus B83-1; assay: MIC, microbroth dilution, strain B83-1; type: cell-based, Staphylococcus aureus
Method: as §1, §2, §3, §4

[6] = system: S. aureus B83-1; assay: Mutation frequency for resistance, strain B83-1; type: cell-based, Staphylococcus aureus
Method: (§5) The mutation frequency for development of resistance to the rifamycin derivative (1) as compared to rifampin was determined with selected Staphylococcus aureus strains.
as §1, §2, §3
(§6) The mutation frequency for development of resistance to the compounds tested was determined by the following method. A single colony of each strain was removed from the surface of a blood agar plate with a cotton swab, suspended in 5 ml of Mueller-Hinton broth (BBL), and streaked on the entire surface of five Mueller-Hinton agar plates. The plates were incubated overnight under aerobic conditions at 35° C., growth was removed from the agar using a sterile cotton swab, and the bacteria were suspended in 10 ml physiological saline. This bacterial suspension was the inoculum for the mutation frequency determinations. Standard plate counts were performed on the inoculum by performing serial dilutions and plating a 0.1 ml aliquot on the surface of ten Mueller-Hinton agar plates at each concentration. The plates were incubated for 18-24 hours at 35° C. under aerobic conditions and colony counts performed. Mean bacterial counts were calculated for the inoculum with each strain.
(§7) A 0.1 ml aliquot of the inoculum was then used to inoculate the entire surface of ten plates each containing 1, 10, and 100 μg/ml of the test antimicrobial agents. The plates were incubated for 18-24 hours at 35° C. under aerobic conditions and colony counts performed. Mean bacterial counts were calculated for each antimicrobial concentration and the mutation frequency calculated by dividing the number of colonies which grew on the drug containing media by the inoculum size.

[7] = system: S. aureus ATCC 29213; assay: Mutation frequency for resistance, strain ATCC 29213; type: cell-based, Staphylococcus aureus
Method: as §5, §1, §2, §3, §6, §7

[8] = route IMM (intramammary), 1 hour after infection
[9] = Staphylococcus aureus, read-out: MIC

| Compound | ED (mg/kg/d) Mastitis [1, 8] | ED (mg/kg/d) Culture ([1]; route IMM (intramammary)) | % reduction ([2]; 1X MIC) | CFU/ml ISD (×10^3) ([2]; 1X MIC) | % reduction ([2]; 100X MIC) | CFU/ml ISD (×10^3) ([2]; 100X MIC) | Mutation frequency ([6]; 1 μg/ml) | Mutation frequency ([6]; 10 μg/ml) | Mutation frequency ([6]; 100 μg/ml) | Mutation frequency ([7]; 1 μg/ml) | Mutation frequency ([7]; 10 μg/ml) | Mutation frequency ([7]; 100 μg/ml) | further results |
| --- | --- | --- | --- | --- | --- | --- | --- | --- | --- | --- | --- | --- | --- |
| COC1/C=C/OC2(C)Oc3c(C)c(O)c4c(=O)c(c5oc6cc(N7CCN(C)CC7)cc(O)c6nc-5c4c3C2=O)NC(=O)/C(C)=C\C=C\C(C)C(O)C(C)C(O)C(C)C(OC(C)=O)C1C (stereo not drawn) [R = methyl] | 0.3 mg/kg/day | 0.3 mg/kg/day | 92.0% | 0.3 ± 0.1 CFU/ml (×10^3) | 100% | 0.0 CFU/ml (×10^3) | 1.5 × 10^−8 | <1.8 × 10^−9 | <1.8 × 10^−9 | 2.1 × 10^−9 | <1.1 × 10^−9 | <1.1 × 10^−9 | ED (mg/kg/d) Culture ([1]; route SC (subcutaneous)): 0.5 mg/kg/day; ED (mg/kg/d) Mastitis ([1]; route SC (subcutaneous)): 0.2 mg/kg/day; effectiveness against rifampin-resistant strains ([3]; MIC, in words): effective against rifampin-resistant strains; MIC [3]: 500 ng/mL (≈ 556 nM); MIC [4]: 0.061 ng/mL (≈ 0.0679 nM); MIC [5]: 0.061 ng/mL (≈ 0.0679 nM) |
| CO[C@H]1/C=C/O[C@@]2(C)Oc3c(C)c(O)c4c(O)c(c(/C=N/N5CCN(C)CC5)c(O)c4c3C2=O)NC(=O)/C(C)=C\C=C\[C@H](C)[C@H](O)[C@@H](C)[C@@H](O)[C@@H](C)[C@H](OC(C)=O)[C@@H]1C [Rifampin, reference compound] | 0.4 mg/kg/day | >2.0 mg/kg/day | 83.0% | 0.6 ± 0.3 CFU/ml (×10^3) | 85.0% | 0.5 ± 0.2 CFU/ml (×10^3) | 3.7 × 10^−8 | 4.5 × 10^−8 | 1.9 × 10^−8 | 2.6 × 10^−8 | 2.5 × 10^−8 | 1.9 × 10^−8 | MIC [3, 9]: > 4000 ng/mL; MIC [4, 9]: 1.9 ng/mL (≈ 2.31 nM); MIC ([5]; Staphylococcus aureus, B831, read-out: MIC): 1.9 ng/mL (≈ 2.31 nM) |
